A short description of data set [1]: Acute toxicity, oral, mouse. The class given is in vivo, CFLP-RE albino mice. The method, then:
The product is administered orally in suspension in 5% strength gum arabic to CFLP-RE albino mice weighing 20-25 g and to CFY-RE Sprague-Dawley rats weighing 125-175 g. The volume administered is 25 ml/kg in the mouse except for the maximum dose of 12,800 mg/kg where a volume of 50 ml/kg is administered, and 10 ml/kg in the rat except for the maximum dose of 12,800 mg/kg where a volume of 30 ml/kg is administered.
It was impossible to determine the 50 percent lethal dose since no deaths occurred.

Data set [2] in a line: Diuretic activity (method of Taylor and Topliss): elimination of urine and urine parameters over 8 hours. The class given is in vivo, Male Sprague-Dawley (HC/CFY) rats. As to conditions: rat; for ED50: po, from regression of log dose against percentage effect. The method, then: ACTIVITY Method of R. M. Taylor and […]. Med. Pharm. Chem. 1962, 4, 312 Male Sprague-Dawley (HC/CFY) rats weighting between 150 and 200 grams are used. The animals are kept without food and water for 16 hours before the start of the test. The products are administered as a suspension in a 0.5% strength carboxymethylcellulose suspension in a 0.9% strength sodium chloride solution, using a probang, the amount administered being 50 ml/kg of body weight. […] The following parameters are determined in the urine: volume (ml/kg); sodium and potassium (milliequivalents/kg/8 h) (flame photometer); chloride (milliequivalents/kg/8 h) (chloride-meter); pH/8 h (pH-meter) and osmotic pressure (osmotic millimols/kg/8 h) (osmometer). The comparsion animals are given the 0.5% strength carboxymethylcellulose suspension in a 0.9% strength sodium chloride solution in an amount of […] of body weight.

Counter-ions that a name gives are not always drawn. Like-named read-outs stand apart in the source and are kept apart here.

Consider `Cc1cc(C)[n+]([N-]C(=O)c2ccc(Cl)c(S(N)(=O)=O)c2)c(C)c1` [Example 2, 1-[(4-chloro-3-sulfamylbenzoyl)-amino]-2,4,6-trimethylpyridinium hydroxide inner salt], for which the Mortality in data set [1] (female, 400 mg/kg) is 0/4. Moreover, the Mortality in data set [1] (female, 800 mg/kg) is 0/4. Moreover, the Mortality in data set [1] (male, 400 mg/kg) is listed as 0/4. The Mortality in data set [1] (male, 800 mg/kg) was 0/4. Further, in data set [2] (8 h, read-out: ED50, osmotic pressure (m osmol/kg/8 h)), the ED50 is 1.2 mg/kg. In addition, the ED50 in data set [2] (8 h, read-out: ED50, volume of urine (ml/kg/8 h)) stood at 4.7 mg/kg. In addition, in data set [2] (40 mg/kg, over 8 hours), the “Elimination in the urine: Cl” value stood at 11.8 milliequivalents/kg/8 h, the “Elimination in the urine: K” value was 1.7 milliequivalents/kg/8 h, the “Elimination in the urine: Na” value came to 9.1 milliequivalents/kg/8 h and the “Osmotic pressure of urine” value was found to be 29.7 osmotic millimols/kg/8 h. Further, in data set [2] (40 mg/kg, over 8 hours), the “Urine pH” value was found to be 6.0. The “Elimination of urine, 1 h” value in data set [2] (40 mg/kg, probang, 1 h) stood at 10.4 mL/kg. Also, the “Elimination of urine, 2 h” value in data set [2] (40 mg/kg, probang, 2 h) amounted to 22.3 mL/kg. Moreover, the “Elimination of urine, 3 h” value in data set [2] (40 mg/kg, probang, 3 h) is 30.2 mL/kg. In addition, in data set [2] (40 mg/kg, probang, 4 h), the “Elimination of urine, 4 h” value is 36.0 mL/kg. Further, the “Elimination of urine, 6 h” value in data set [2] (40 mg/kg, probang, 6 h) amounted to 41.5 mL/kg. The “Elimination of urine, 8 h” value in data set [2] (40 mg/kg, probang, 8 h) was found to be 45.6 mL/kg.
